pIC50: −log10 of the molar value.

A word on the pIC50: it is the IC50 on a negative log10 scale, so that one unit is a factor of ten.

This test in a line: Inhibition of BACE1 in human SH-SY5Y cells harboring wild type APP695 assessed as reduction in amyloid beta (1 to 42) level after 24 hrs by ELISA method.

In the case of `Oc1c(CN2CCCC2)cc(Nc2ccnc3cc(Cl)ccc23)cc1CN1CCCC1`, the pIC50 was 4.95.
The value for `CN(C)Cc1ccccc1-c1ccc(NCCCCN2CCCCC2)c(OCCN2CCCCC2)c1` was 5.80.
The value for `CN(C)Cc1ccc(-c2ccc(NCCCN3CCCCC3)c(OCCN3CCCCC3)c2)cc1` was 5.77; that for `CN(C)Cc1ccccc1-c1ccc(NCCN2CCCCC2)c(OCCCCN2CCCCC2)c1` was 5.80.
The value for `c1cc(-c2ccc(NCCCN3CCCCC3)c(OCCN3CCCCC3)c2)ccc1CN1CCCCC1` was 5.48.
In the case of `CN(C)Cc1ccccc1-c1ccc(NCCCN2CCCCC2)cc1`, the negative-log IC50 (pIC50) was 5.44.
The value for `c1cc(CN2CCCCC2)cc(-c2ccc(NCCCN3CCCCC3)c(OCCN3CCCCC3)c2)c1` was 5.32; that for `CN(C)Cc1ccccc1-c1ccc(NCCCN2CCCCC2)c(OCCC2CCCCC2)c1` was 5.55.
To `c1ccc(-c2cccc(OCCN3CCCCC3)c2)cc1` belongs 4.86; to `c1ccc(-c2ccc(NCCCN3CCCCC3)c(OCCN3CCCCC3)c2)c(CN2CCCCC2)c1`, 5.39; to `c1ccc(-c2ccc(NCCCN3CCCCC3)c(OCCN3CCCCC3)c2)c(CN2CCOCC2)c1`, 5.38.
Regarding `CN(C)Cc1ccccc1-c1ccc(NCCCN2CCCCC2)c(OCCN2CCCCC2)c1`, the negative logarithm of the IC50 (pIC50) was 5.47.
To `CN(C)Cc1ccccc1-c1ccc(NCCN2CCCCC2)c(OCCN2CCCCC2)c1` belongs 5.92; to `c1ccc(-c2ccc(NCCCN3CCCCC3)c(OCCN3CCCCC3)c2)cc1`, 5.40.
Take `CN(C)Cc1ccccc1-c1cccc(OCCN2CCCCC2)c1`: the pIC50 is 5.92.
The value for `CN(C)Cc1ccn(-c2ccc(NCCCN3CCCCC3)c(OCCN3CCCCC3)c2)c1` was 5.19.
To `CN(C)Cc1ccccc1-c1ccc(NCCN2CCCCC2)c(OCCCN2CCCCC2)c1` belongs 5.74.
To `CC(C)CN(CCCN1CCN(CCCNc2nc3ccccc3[nH]2)CC1)CC(C)C` [(1H-Benzoimidazol-2-yl)-{3-[4-(3-diisobutylamino-propyl)-piperazin-1-yl]-propyl}-amine] belongs 5.68.

Values taken from BindingDB's records for doi:10.1016/j.ejmech.2018.08.092 (University of Lille, 2018).
